Several values for one entry are separate records, joined by “and”; a condition that tells them apart may be missing. Identical values can stand only once. Inconclusive results and toxic doses are left out. How the source made its calls: active means survival T/C of 150% or more; inactive means T/C below 125% in these data.
System: CD2F1 mice, L1210 leukemia ip, survival T/C
Experiment: NCI In Vivo Anticancer Drug Screen. Data for tumor model L1210 Leukemia (intraperitoneal) in CD2F1 (CDF1) mice
Details: higher = longer survival
Outline: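 Transplantable tumor in mice; compound-treated vs vehicle-treated groups. Read-out = treated/control ratio of the measured endpoint.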

[1] = endpoint: mean survival time, dose: 100.0 mg/kg/injection, schedule: Q04DX003 (ip), vehicle: saline with Tween-80
[2] = endpoint: mean survival time, dose: 200.0 mg/kg/injection, schedule: Q04DX003 (ip), vehicle: saline with Tween-80
[3] = endpoint: mean survival time, dose: 400.0 mg/kg/injection, schedule: Q04DX003 (ip), vehicle: saline with Tween-80
[4] = endpoint: mean survival time, dose: 50.0 mg/kg/injection, schedule: Q01DX009 (ip), vehicle: saline with Tween-80
[5] = endpoint: mean survival time, dose: 100.0 mg/kg/injection, schedule: Q01DX009 (ip), vehicle: saline with Tween-80
[6] = endpoint: mean survival time, dose: 200.0 mg/kg/injection, schedule: Q01DX009 (ip), vehicle: saline with Tween-80
[7] = endpoint: mean survival time, dose: 100.0 mg/kg/injection, schedule: Q04DX003 (ip), vehicle: saline
[8] = endpoint: mean survival time, dose: 200.0 mg/kg/injection, schedule: Q04DX003 (ip), vehicle: saline
[9] = endpoint: mean survival time, dose: 400.0 mg/kg/injection, schedule: Q04DX003 (ip), vehicle: saline
[10] = endpoint: mean survival time, dose: 100.0 mg/kg/injection, schedule: Q01DX001 (ip), vehicle: carboxymethylcellulose (CMC)
[11] = endpoint: mean survival time, dose: 200.0 mg/kg/injection, schedule: Q01DX001 (ip), vehicle: carboxymethylcellulose (CMC)
[12] = endpoint: mean survival time, dose: 400.0 mg/kg/injection, schedule: Q01DX001 (ip), vehicle: carboxymethylcellulose (CMC)

Measured: T/C

COc1cc2c(cc1OC)C(Cc1ccc(NC(=O)c3ccc(C(=O)Nc4ccc(CC5c6cc(OC)c(OC)cc6CCN5C)cc4)cc3)cc1)N(C)CC2 (stereo not drawn)
inactive: endpoint: mean survival time, dose: 100.0 mg/kg/injection, schedule: Q01DX001 (ip), vehicle: other 107 % of control | endpoint: mean survival time, dose: 200.0 mg/kg/injection, schedule: Q01DX001 (ip), vehicle: other 101 % of control | endpoint: mean survival time, dose: 400.0 mg/kg/injection, schedule: Q01DX001 (ip), vehicle: other 103 % of control

CC(C)NC(=O)C1CC2c3cccc4c3C(CN4)CC2N(C)C1 (stereo not drawn)
inactive: endpoint: mean survival time, dose: 12.5 mg/kg/injection, schedule: Q04DX002 (ip), vehicle: saline with Tween-80 98 % of control | endpoint: mean survival time, dose: 25.0 mg/kg/injection, schedule: Q04DX002 (ip), vehicle: saline with Tween-80 95 % of control | endpoint: mean survival time, dose: 50.0 mg/kg/injection, schedule: Q04DX002 (ip), vehicle: saline with Tween-80 98 % of control

O=C(COc1ccccc1)NCc1ccccc1Cl
inactive: [1] 100 % of control | [2] 103 % of control | [3] 91 % of control

C/C=C(\C)C(C)(C#N)Nc1ccccc1 (stereo not drawn)
inactive: [4] 103 % of control | [5] 100 % of control | [1] 101 % of control | [6] 102 % of control | [2] 101 % of control | [3] 95 % of control

CC(=O)Nc1ccc(N=CN(C)C)cc1
inactive: [1] 95 % of control | [2] 95 % of control | [3] 112 % of control

CCC[CH2][Sn]1([CH2]CCC)[O]C2C(CO)OC(n3c(Br)c(C(N)=O)c4c(N)ncnc43)C2[O]1 (stereo not drawn)
inactive: endpoint: mean survival time, dose: 1.56 mg/kg/injection, schedule: Q01DX009 (ip), vehicle: distilled water + Tween-80 100 % of control | endpoint: mean survival time, dose: 3.13 mg/kg/injection, schedule: Q01DX009 (ip), vehicle: distilled water + Tween-80 107 % of control

CCCCCCCCCCCC(=O)NC(=S)Nc1cccc(C(F)(F)F)c1
inactive: endpoint: mean survival time, dose: 100.0 mg/kg/injection, schedule: Q01DX009 (ip), vehicle: other 95 % of control | endpoint: mean survival time, dose: 200.0 mg/kg/injection, schedule: Q01DX009 (ip), vehicle: other 103 % of control | endpoint: mean survival time, dose: 400.0 mg/kg/injection, schedule: Q01DX009 (ip), vehicle: other 103 % of control

Cc1cc(C)c(C(=O)CC(C)C)c(C)c1
inactive: endpoint: mean survival time, dose: 100.0 mg/kg/injection, schedule: Q01DX001 (ip), vehicle: saline 104 % of control | endpoint: mean survival time, dose: 200.0 mg/kg/injection, schedule: Q01DX001 (ip), vehicle: saline 104 % of control | endpoint: mean survival time, dose: 400.0 mg/kg/injection, schedule: Q01DX001 (ip), vehicle: saline 104 % of control

O=C(O)CN(CCO)CCO
inactive: [7] 100 % of control | [8] 102 % of control | [9] 102 % of control

NC(=O)NO
inactive: endpoint: mean survival time, dose: 4.0 mg/kg/injection, schedule: Q03HX024 (ip), vehicle: saline 95 % of control | endpoint: mean survival time, dose: 8.0 mg/kg/injection, schedule: Q03HX024 (ip), vehicle: saline 97 % of control | endpoint: mean survival time, dose: 62.0 mg/kg/injection, schedule: Q03HX024 (ip), vehicle: saline 90 % of control | endpoint: mean survival time, dose: 100.0 mg/kg/injection, schedule: Q03DX003 (ip), vehicle: saline 110 % of control | [8] 100 % of control | endpoint: median survival time, dose: 25.0 mg/kg/injection, schedule: Q03HX024 (ip), vehicle: saline 120 % of control | endpoint: median survival time, dose: 100.0 mg/kg/injection, schedule: Q06HX016 (ip), vehicle: saline 99 % of control | endpoint: median survival time, dose: 200.0 mg/kg/injection, schedule: Q06HX016 (ip), vehicle: saline 99 % of control

CCSc1nc(N)c2ncn(C3OC(CO)C(O)C3O)c2n1 (stereo not drawn)
inactive: endpoint: median survival time, dose: 10.0 mg/kg/injection, schedule: Q01DX005 (ip), vehicle: saline with Tween-80 103 % of control | endpoint: median survival time, dose: 20.0 mg/kg/injection, schedule: Q01DX005 (ip), vehicle: saline with Tween-80 100 % of control | endpoint: median survival time, dose: 40.0 mg/kg/injection, schedule: Q01DX005 (ip), vehicle: saline with Tween-80 91 % of control | endpoint: median survival time, dose: 80.0 mg/kg/injection, schedule: Q01DX005 (ip), vehicle: saline with Tween-80 88 % of control | endpoint: median survival time, dose: 160.0 mg/kg/injection, schedule: Q01DX005 (ip), vehicle: saline with Tween-80 93 % of control

Cn1c(=O)c2c(ncn2C)n(C)c1=O.[Cl][Pt]([Cl])[Cl]
inactive: endpoint: mean survival time, dose: 3.13 mg/kg/injection, schedule: Q04DX003 (ip), vehicle: saline 112 % of control | endpoint: mean survival time, dose: 3.13 mg/kg/injection, schedule: Q04DX003 (ip), vehicle: water 98 % of control | endpoint: mean survival time, dose: 6.25 mg/kg/injection, schedule: Q04DX003 (ip), vehicle: saline 104 % of control | endpoint: mean survival time, dose: 6.25 mg/kg/injection, schedule: Q04DX003 (ip), vehicle: water 95 % of control | endpoint: mean survival time, dose: 12.5 mg/kg/injection, schedule: Q04DX003 (ip), vehicle: saline 106 % of control | endpoint: mean survival time, dose: 12.5 mg/kg/injection, schedule: Q04DX003 (ip), vehicle: water 104 % of control | endpoint: mean survival time, dose: 25.0 mg/kg/injection, schedule: Q04DX003 (ip), vehicle: saline 102 % of control | endpoint: mean survival time, dose: 25.0 mg/kg/injection, schedule: Q04DX003 (ip), vehicle: water 102 % of control | endpoint: mean survival time, dose: 50.0 mg/kg/injection, schedule: Q04DX003 (ip), vehicle: saline 106 % of control | endpoint: mean survival time, dose: 50.0 mg/kg/injection, schedule: Q04DX003 (ip), vehicle: water 104 % of control | [7] 112 % of control | endpoint: mean survival time, dose: 100.0 mg/kg/injection, schedule: Q04DX003 (ip), vehicle: water 118 % of control | [8] 111 % of control

O=C1CNC(=O)N1c1cccc(Cl)c1
inactive: [5] 96 % of control | [6] 92 % of control

O=c1sc2ccccc2n1CCSCCn1c(=S)sc2ccccc21
inactive: [7] 93 % of control | [8] 96 % of control | [9] 96 % of control

Cc1ccc([N+](=O)[O-])c(P(=O)(O)O)c1
inactive: endpoint: mean survival time, dose: 25.0 mg/kg/injection, schedule: Q01DX009 (ip), vehicle: saline with Tween-80 91 % of control | [4] 88 % of control | [5] 87 % of control

C[N+](C)(CCCCCCCCCC[N+](C)(C)CC(=O)c1ccccc1)CC(=O)c1ccccc1
inactive: endpoint: mean survival time, dose: 0.5 mg/kg/injection, schedule: Q04DX003 (ip), vehicle: saline 101 % of control | endpoint: mean survival time, dose: 1.0 mg/kg/injection, schedule: Q04DX003 (ip), vehicle: saline 94 % of control | endpoint: mean survival time, dose: 2.0 mg/kg/injection, schedule: Q04DX003 (ip), vehicle: saline 95 % of control

CC(C)[S-].CC(C)[S-].[Pt+2].c1ccc([PH+](c2ccccc2)c2ccccc2)cc1.c1ccc([PH+](c2ccccc2)c2ccccc2)cc1
inactive: endpoint: mean survival time, dose: 3.13 mg/kg/injection, schedule: Q04DX003 (sc), vehicle: distilled water + Tween-80 96 % of control | endpoint: mean survival time, dose: 6.25 mg/kg/injection, schedule: Q04DX003 (sc), vehicle: distilled water + Tween-80 100 % of control | endpoint: mean survival time, dose: 12.5 mg/kg/injection, schedule: Q04DX003 (sc), vehicle: distilled water + Tween-80 92 % of control | endpoint: mean survival time, dose: 50.0 mg/kg/injection, schedule: Q04DX003 (sc), vehicle: distilled water + Tween-80 87 % of control | endpoint: mean survival time, dose: 200.0 mg/kg/injection, schedule: Q04DX003 (sc), vehicle: distilled water + Tween-80 89 % of control

CC(=O)OCCN1CC1
inactive: endpoint: mean survival time, dose: 25.0 mg/kg/injection, schedule: Q01DX009 (ip), vehicle: saline 90 % of control

O=c1[nH]c2cc(Br)ccc2c2ccc(Br)cc12
inactive: endpoint: mean survival time, dose: 50.0 mg/kg/injection, schedule: Q01DX001 (ip), vehicle: carboxymethylcellulose (CMC) 95 % of control | [10] 98 % of control | [11] 101 % of control | [12] 104 % of control

CS(=O)(=O)OC1CCCSc2ccccc21 (stereo not drawn)
inactive: [10] 103 % of control | [11] 97 % of control | [12] 97 % of control

CC(=O)OCc1ncccc1OC(C)=O
inactive: endpoint: mean survival time, dose: 25.0 mg/kg/injection, schedule: Q01DX009 (ip), vehicle: suspension in saline 102 % of control | endpoint: mean survival time, dose: 50.0 mg/kg/injection, schedule: Q01DX009 (ip), vehicle: suspension in saline 98 % of control | endpoint: mean survival time, dose: 100.0 mg/kg/injection, schedule: Q01DX009 (ip), vehicle: suspension in saline 102 % of control | endpoint: mean survival time, dose: 200.0 mg/kg/injection, schedule: Q01DX009 (ip), vehicle: suspension in saline 93 % of control

CCN(N=O)C(=O)Nc1ccc(C2CC(=O)N(C)C2=O)cc1 (stereo not drawn)
inactive: endpoint: mean survival time, dose: 12.5 mg/kg/injection, schedule: Q01DX001 (ip), vehicle: distilled water + Tween-80 99 % of control | endpoint: mean survival time, dose: 25.0 mg/kg/injection, schedule: Q01DX001 (ip), vehicle: distilled water + Tween-80 111 % of control | endpoint: mean survival time, dose: 50.0 mg/kg/injection, schedule: Q01DX001 (ip), vehicle: distilled water + Tween-80 94 % of control and 98 % of control and 108 % of control | endpoint: mean survival time, dose: 100.0 mg/kg/injection, schedule: Q01DX001 (ip), vehicle: distilled water + Tween-80 122 % of control and 94 % of control and 96 % of control | endpoint: mean survival time, dose: 200.0 mg/kg/injection, schedule: Q01DX001 (ip), vehicle: distilled water + Tween-80 99 % of control and 101 % of control
